Earlier results in patent publication US8597613B2, “Radiolabeled lymphatic staining agents and methods for making” (Iso-Tex Diagnostics, Inc, priority 2004, dated 2013).

Details: 0.1-0.5 cc injected into the breast following wire-localization procedures

CN(C)c1ccc2nc3ccc(=[N+](C)C)cc-3sc2c1 [methylene blue, phenothiazin-5-ium-3,7-bis(dimethylamino)-chloride]
reported adverse events: no reported adverse events
